This is an account of results in PubChem BioAssay AID602445 (National Center for Advancing Translational Sciences (NCATS), 2012).

This series deals with mouse liver microsomes with NADPH, percent remaining. Put plainly: High Content Assay for Compounds that inhibit the Assembly of the Perinucleolar Compartment: Mouse Liver Microsome Stability with NADPH. As to conditions: stronger effect = lower value. The text has this:
The perinucleolar compartment (PNC) is a non-membrane-bound nuclear subdomain that is associated with but structurally distinct from the nucleolus. The PNC is a heritable trait, in which the number of PNCs per cell in daughter cells often mimics that of their mother cells. The PNC is heterogeneous in shape, is stable through interphase, disassembles during mitosis, and reassembles in early G1. The PNC is concentrated with newly synthesized RNA polymerase III (pol III) RNAs (MRP RNA, RNAse P H1 RNA, hY RNAs[hY1, 2, 5], Alu RNA, and SRP [7SL] RNA) and RNA binding proteins (nucleolin, PTB, CUG-BP, KSRP, Raver1, Raver2, and Rod).
Extensive in vitro studies have shown that the PNC is unique to tumor cells and preferentially forms in tumor cells derived from solid tissues. Examination of cancer cell lines from various origins and malignant capacities has shown that PNC prevalence correlates with the malignancy of tumors and has the potential to be developed as a pan-cancer prognostic marker.
Mouse liver microsomes are generated from lysed mouse liver. […]
1uM of compound in incubated in mouse liver microsome; the reference compound is ketanserin. […] Samples are analyzed with LC-MS/MS.
Background: Liver microsomes are a subcellular fraction often used to study metabolism.

Structures are written as SMILES.

For the compound `N=c1c2c(-c3ccccc3)c(-c3ccccc3)n(Cc3ccccc3)c2ncn1C1CCC(O)CC1` (stereo unspecified), the percent remaining was 107%.
